From patent US12624396B2, “Methods for alleviating facioscapulohumeral dystrophy (FSHD) by an antisense nucleic acid molecule inhibiting the expression of double homeobox 4 (DUX4)” (Fred Hutchinson Cancer Center, priority 2010, dated 2026) come the findings set out here.

Molecules are shown by their SMILES. “Also recorded” adds a separate entry of the source.

Experiment [1] relates to DUX4 mRNA in FSHD fibroblasts. The experiment is described as follows: DUX4 mRNA in FSHD fibroblasts with beta-estradiol inducible MyoD, cycloheximide addition and washout. The format is cell-based, human. The conditions noted are these: MyoD induction, 38 hours in differentiation conditions, chx added, FIG. 24. An excerpt:
The 3-prime untranslated region (UTR) of the DUX4 mRNA has an unusual exon-intron structure. The translational stop codon is in the first exon, whereas the polyadenylation sequence is in the third exon. The separation of the translational stop codon from the polyadenylation site by two exon-intron junctions would be predicted to make this mRNA subject to translation dependent nonsense mediated decay.
FSHD fibroblasts expressing low amounts of DUX4 mRNA were stably transduced with a beta-estradiol inducible MyoD so that addition of beta-estradiol will convert them to skeletal muscle, which after 96 hours of induction increases the steady-state levels of the DUX4 mRNA and activates expression of the MyoD target Mgn (compare lanes 1 and 2). […] Washout of the chx results in the rapid loss of the DUX4 mRNA, disappearing between 2 and 8 hrs of washout. The loss of DUX4 mRNA is associated with its translation since the DUX4 target PRAME 1 is induced as the DUX4 mRNA disappears.

Experiment [2] deals with DUX4-fl mRNA in FSHD muscle cells. The experiment is described as follows: DUX4-fl mRNA in FSHD muscle cells treated with MAO inhibitors (RT-PCR). The format is cell-based, human. An excerpt: The monamine oxidase inhibitor pargyline has been reported to inhibit the activity of the LSD1 histone demethylase that demethylates H3K9.
FIG. 22 graphically illustrates that pargyline decreases the amount of DUX4 mRNA in FSHD muscle cells.
Middle panel is a no RT control and bottom panel is a GAPDH loading control.

For `C[C@@H]1C[C@@H]([C@H](O)CC2CC(=O)NC(=O)C2)C(=O)[C@@H](C)C1` [cycloheximide], the “DUX4 mRNA level” value in experiment [1] is recorded as “accumulation of the DUX4 mRNA; also recorded: significant increase in DUX4 mRNA”.

For the compound `C#CCN(C)Cc1ccccc1` [pargyline], the “abundance of DUX4-fl mRNA” value in experiment [2] (FSHD muscle cells expressing endogenous DUX4-fl mRNA, quantitative RT-PCR, FIG. 22) is “suppresses the expression of DUX4 mRNA; also recorded: decreases the abundance of DUX4-fl mRNA in a dose-dependent manner”. Also, the “amount of DUX4-fl mRNA” value in experiment [2] (cultured FSHD muscle cells differentiated 48 hours in differentiation medium with varying amounts of pargyline, RT-PCR, FIG. 23) is “dose-dependent inhibition of DUX4 mRNA expression”.
